Source: patent publication US20050214738A1, “Conditional allele system” (priority 2003, published 2005)

Legend:
FKBP-GSK3β-GFP = biological target: T1, FKBP-GSK3β-GFP (Homo sapiens, UniProt P62942); test: Sub-cellular localization of FKBP-GSK3β-GFP with FRB(TLW)-NES and FRB(KTF)-NLS in COS1 cells; format: cell-based; details: 10 nM, 1 hour
T1 construct: expressed in transfected cells; host or cells: COS1 cells
Method: COS1 cells were electroporated with 1 μg pS-FKBP-GSK3β-GFP, 1 μg of the ‘exporter’ pBJ5-FRB(TLW)-Exp-HA containing a nuclear export sequence derived from the rev protein of Human Immunodeficiency Virus and 3 μg of the ‘importer’ pBJ5-FRB(KTF)-Imp with a nuclear localization sequence from SV40 Large T antigen. Cells were plated on autoclaved coverslips and incubated 36 hours followed by 1 hour of rapalog treatment (10 nM). Cells were fixed 10 minutes in 4% paraformaldeyde/PBS at 4° C. and mounted for microscopy with DAPI to visualize the nucleus. Microscopy was perfomed with a Leica confocal microscope and Leica software.

mutant FRBs = test: SeAP transcriptional switch assay, panel of FRB mutants at 2095, 2098, 2101; format: cell-based, human; details: Phe at 2101
Method: All FRB mutants were prepared by the Quikchange mutagenesis method (Stratagene) using protocols provided by the manufacturer. Briefly, PCR reactions containing the parent plasmid pBJ5-FRB-VP16-HA or pBJ5-FRB*-VP16-HA and overlapping oligonucleotides containing the relevant base changes were performed with Pfu polymerase (Stratagene, San Diego, Calif.). PCR reactions were digested with the methylation sensitive restriction endonuclease Dpn1 to eliminate the parent plasmid and the reaction was transformed in XL10-Gold Ultracompetent E. coli (Stratagene).
Electroporation details are available upon request. Cells were immediately aliquoted to 2 or 3×96 well plates with flat bottoms. […] Data was analysed with Softmax Pro (Molecular Devices), Microsoft Excel and Prism 3 (GraphPad Software).

T1 sequence (P62942 whole entry): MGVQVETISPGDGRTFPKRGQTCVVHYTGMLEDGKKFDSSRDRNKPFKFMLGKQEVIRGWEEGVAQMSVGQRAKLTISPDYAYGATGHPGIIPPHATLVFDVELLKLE

C16-(S)Butylsulfonylrapamycin [C16-BSrap, reference compound]
sub-cellular localization of GSK3β (FKBP-GSK3β-GFP): localized to the cytoplasm
binding to mutant FRBs with Phe substituted at amino acid 2101 (mutant FRBs): little or no binding
